Values quoted from earlier work as cited in US7135196B2, “Iron compositions” (Vitra Pharmaceuticals Limited, priority 2000, dated 2006).

## O=C([O-])/C=C/C(=O)[O-].[Fe+2] [fumarate, ferrous fumarate]
  solubility in water: poorly and slowly soluble
